Experimental data reported in patent US20240344145A1, “PHARMACOGENOMICS SCORE TO MAKE DECISIONS ON THERAPY AUGMENTATION IN AML” (University of Florida Research Foundation, Incorporated, priority 2021, published 2024).

Assays:
[1] = test system: AML patients (1 month to 29.9 years old); details: previously reported, cited from earlier work
[2] = test system: AML patients (1 month to 29.9 years old); assay: COG-AAML0531 clinical trial, ADE vs ADE+GO arms: MRD1, EFS and OS overall and by ACS10 score and CD33 SNP; format: in vivo, human; details: low ACS10 score
Experimental: AAML0531 clinical trial enrolled previously untreated AML patients (1 month to 29.9 years old) who were randomized to receive ADE (cytarabine 100 mg/m^2/dose twice per day for […] alongside with daunorubicin and etoposide-equivalent to LDAC arm of St. Jude AML02) with or without the addition of 1 dose in induction 1 and 1 dose in intensification of CD33-targeting drug gemtuzumab ozogamicin (ADE+GO arm). Genotype data on 10 SNPs that were part of the ACS10 score in the discovery cohort was generated in 931 patients (n=465 in standard ADE arm and n=466 in ADE+GO arm). […] In subsequent analysis to check whether ACS10 score has impact on the GO addition, the evaluation of patients from the ADE+GO arm was also considered.
The association of MRD1, EFS, and OS was evaluated with ACS10 scores in the AML02 discovery cohort and the AAML0531 validation cohort. The Kaplan-Meier method was used to estimate the EFS and OS probabilities for well-defined groups of patients. Cox regression models were used to associate ACS10 with EFS and OS and used logistic regression models to associate ACS10 with MRD1. The Wilcoxon rank-sum test and Kruskal-Wallis test were used to compare medians of numeric variables across groups. Chi-square tests and Fisher's exact test were used to evaluate the association among pairs of categorical variables. All p-values are two-sided. […]

## gemtuzumab ozogamicin [GO]
[1]; CD33 rs12459419 CT/TT genotypes, ADE+GO versus ADE
  benefit from addition of GO to standard chemotherapy: derived no benefit from addition of GO
[1]; CD33 rs12459419 homozygous CC genotype
  survival (EFS and DFS) with addition of GO to standard chemotherapy: significantly better survival
[2]; CD33 rs12459419 CC genotype
  benefit from adding GO (EFS and OS): benefit from adding GO
[2]; CT/TT genotype for CD33 rs12459419
  benefit from addition of GO (EFS and OS): do not benefit from addition of GO
